Data published in PubChem BioAssay AID977607 (Broad Institute, 2014).
Where “and” joins values, the source holds several entries; their conditions need not be identical. Equal entries are not always repeated. Calls of active or inactive are those of the source.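 Rule for the calls: active = curve reaches 40% activation over neutral controls at an AC40 no higher than the top valid tested concentration; inconclusive = no clear call, values can overlap the other calls; inactive = signal moving opposite to the expected increase, and the rest.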

Tested on: INS-1E GLuc insulin secretion reporter, luminescence, 2-3 h
Assay: activators of glucose-dependent insulin secretion, dose response, cell-based, INS-1E, Gaussia luciferase, luminescence, cherry-pick, set 2 (AID 977607)

| Compound | AC40 |
| --- | --- |
| CCOC(=O)Nc1cccc(OCC(=O)Nc2ccc3c(c2)CCC3)c1 | 7.83 µM |
| O=C(Nc1ccccc1)c1nnsc1S(=O)(=O)c1ccc(Cl)cc1 | 1.21 µM |
| Cc1cccc(S(=O)(=O)N2CCCCN3[C@@H](CO)[C@@H](c4ccc(C#CC(C)C)cc4)[C@@H]3C2)c1 | 18.2 µM |
| COc1cccc(-c2cc(C(=O)Nc3cc(C)on3)no2)c1 | 19.2 µM |
| CCOC(=O)c1c(-n2cnnn2)sc2c1CCCC2 | 14.6 µM |
| O=C(N/N=C\c1ccc(CNS(=O)(=O)c2ccc(Cl)cc2)o1)C(=O)Nc1ccc(Oc2ccccc2)cc1 | 13.9 µM |
| COc1cc(CNCCc2ccccc2)cc(Cl)c1OCc1ccccc1 | 9.79 µM |
| CCc1c(C)sc(NC(=O)c2cc(-c3ccc(OC)c(OC)c3)on2)c1C#N | 9.5 µM |
| COc1ccc(-c2ccc3c(N)c(C(=O)c4ccc(OC)c(OC)c4)sc3n2)cc1 | 5.83 µM |
| CCC(=O)Nc1ccc(NC(=S)NC(=O)c2oc3ccccc3c2C)cc1 | 5.76 µM |
| C[C@@H]1CN([C@H](C)CO)S(=O)(=O)c2ccc(-c3ccc(F)cc3)cc2O[C@H]1CN(C)Cc1cccc(F)c1 | 15.5 µM |
| O=c1[nH]c(/C=C/c2ccc(OC(F)F)cc2)nc2c1cnn2-c1ccccc1 | 21.6 µM |
| O[C@H]1C[C@H](c2ccccc2)N(CC2CCCCC2)C[C@@H]1n1cc(C2CC2)nn1 | 11.5 µM |
| CC(C)Nc1nc(Nc2ccc(C(N)=O)cc2)c2sccc2n1 | 9.89 µM |
| Cn1c(=O)c2c(nc3n2CCCN3CCc2ccccc2)n(C)c1=O | > 35 µM (inactive) |
| Cc1ccc(CNc2nc(NCc3ccccc3)nc3ccsc23)c(C)c1 | 19.2 µM |
| O=c1c(C=Nc2ccc(Oc3ccccc3)cc2)c[nH]n1-c1cccc(Cl)n1 | 6.27 µM |
| CC(C)CC#Cc1ccc2c(c1)O[C@@H](CN(C)Cc1ccc(F)cc1)[C@H](C)CN([C@H](C)CO)S2(=O)=O | 10.4 µM |
| Cc1nc(NC(=O)c2cccc(-c3cc4ccccc4oc3=O)c2)ccc1Br | 12.7 µM |
| CCc1ccc(OCC(=O)NC(=S)Nc2ccc(F)cc2)c(Br)c1 | 10 µM |
| O=C(Nc1ccc(C(F)(F)F)cc1)N1C[C@@H]2N[C@H](C1)C2c1ccc(-c2ccccc2)cc1 (some centres not stated) | 10.2 µM |

| Compound | AC40 |
| --- | --- |
| C=CCNc1nc(NCc2ccco2)nc(OCC)n1 | > 35 µM (inactive) |
| Nc1c(C(=O)Nc2ccc3c(c2)OCCO3)nnn1Cc1ccc(Cl)cc1 | 12.7 µM |
| O=C(Nc1ccc(C(F)(F)F)cc1)N1C[C@@H]2N[C@H](C1)C2c1ccc(/C=C/c2ccccc2)cc1 (some centres not stated) | 8.24 µM and 1.64 µM |
| COc1ccc(C(CCNCc2ccc(OC(C)C)cc2)C(C)C)cc1 (configuration not stated) | 21.7 µM |
| CCOc1ncccc1C(=O)Nc1ncc(C)s1 | > 35 µM (inactive) |
| O=c1[nH][nH]c2c1C(c1ccc(Cl)c(Cl)c1)OC(CCc1ccccc1)C2 (configuration not stated) | 16.9 µM |
| CC(C)Nc1nc(Cl)nc(NC(C)C)n1 | 11.6 µM |
| C=C(C)C1Cc2c(C)nn(-c3cccc4cccnc34)c2C1 (configuration not stated) | 2.1 µM |
| CCOC(=O)[C@]12Cc3cc(OC)ccc3[C@H]1N(C1CCCCC1)C(=O)c1cc(OC)ccc12 | 12 µM |
| CCOC(=O)c1c(C)n(-c2ccc(C)cc2)c2ccc(OCC(O)CN3CCN(C)CC3)cc12 (configuration not stated) | 12.3 µM |
| O=C(O)c1ccc(-n2nnnc2SCc2ccccc2F)cc1 | 0.0781 µM |
| CC(C)(C)S(=O)N1Cc2cc(C(=O)Nc3ccc(-c4ccccc4)cc3)nc(-c3cccc(-c4cccc(F)c4)c3)c2[C@@H]1CCO (some centres not stated) | 6.27 µM |
| CCOC(=O)c1c(NC(=O)Cn2nc(C(F)(F)F)cc2C)sc(C)c1C | 9.34 µM |
| CC(=O)N(/N=C/c1cccc(C)c1)c1nc(-c2ccc(Br)cc2)cs1 | 5.72 µM |
| Cc1cc(NC(=O)c2cc(-c3cccc(Cl)c3)on2)no1 | 5.68 µM |
| CCCc1nnc2n1N=C(c1ccc(OC)c(OC)c1)CS2 | 2.98 µM |
| CCCCc1c(-c2ccc(F)cc2F)ncn1CCc1ccccc1OC | 8.96 µM |
| COc1ccc(CCNC(=O)CCc2nc3ccccc3[nH]2)cc1OC | 0.311 µM |
| O=C(NCc1ccccn1)c1coc(=O)c(Br)c1 | 2.01 µM |
| COc1cc(/C=N/NC(=O)C(C)n2nnc3ccccc32)ccc1O (configuration not stated) | 6.55 µM |
| COc1ccc(NC(=O)COc2ccc(C(=O)NC3CCCc4ccccc43)cc2OC)cc1 (configuration not stated) | 6.54 µM |
